Measured values published in patent US9023393B2, “Pharmaceutical compositions of adsorbates of amorphous drugs and lipophilic microphase-forming materials” (Bend Research, Inc., priority 2003, dated 2015).
One block for each molecule: values may come before it.

Columns and labels:
Type in all cases: physicochemical
[1] = In vitro dissolution test of Drug 1 compositions in PBS pH 6.5, room temperature, 0.45 μm syringe filter, UV; 50 μg/mL if all drug dissolved
Experimental: Example 1 consisted of Adsorbate 1 administered in solution with a lipophilic microphase-forming material. At time 0, a 4 mg sample of Adsorbate 1 was added to 40 mL phosphate buffered saline (PBS) at pH 6.5 and 290 mOsm/kg, containing 1 mg/mL of the lipophilic microphase-forming material Cremaphor RH40 (available from BASF of Mount Olive, N.J.). The concentration of drug would have been 50 μg/mL, if all of the drug had dissolved. The test solution was stirred at room temperature in a syringe equipped with a Gelman Acrodisc 13 CR 0.45 μm PTFE filter. At each sample time, 1 to 2 mL test solution was pushed through the filter and analyzed using UV to determine the concentration of Drug 1 in solution. Samples were collected at 0.5, 1, 2, 3, 5, 10, 15, 20, 30, 45, 60, 90, 120, 150, 250 and 1200 minutes.
(§1) Control 1 consisted of Adsorbate 1 administered into PBS without the lipophilic microphase-forming material, and a sufficient amount of adsorbate was added so that the concentration of drug would have been 50 μg/mL, if all of the drug had dissolved. An in vitro dissolution test was performed with Control 1 using the procedures outlined for Example 1 and the results are shown in Table 1.
Control 2 consisted of crystalline Drug 1 administered into PBS containing 1 mg/mL of the lipophilic microphase-forming material Cremophor RH40, and a sufficient amount of Drug 1 was added so that the concentration would have been 50 μg/mL, if all of the drug had dissolved. An in vitro dissolution test was performed with Control 2 using the procedures outlined for Example 1 and the results are shown in Table 1.
as §1, with “Control 3” for “Control 1”, “of crystalline Drug” for “of Adsorbate”, “of crystalline Drug 1” for “of adsorbate”
Example 2 consisted of Adsorbate 1 administered in solution with a different lipophilic microphase-forming material. At time 0, a 4 mg sample of Adsorbate 1 was added to 40 mL phosphate buffered saline (PBS) at pH 6.5 and 290 mOsm/kg, containing 1 mg/mL of 5/2 (wt/wt) Cremaphor RH40/Capmul MCM (available from Abitec of Janesville, Wis.); the concentration of drug would have been 50 μg/mL, if all of the drug had dissolved. The test solution was stirred at room temperature in a syringe equipped with a Gelman Acrodisc 13 CR 0.45 μm PTFE filter, as described for Example 1. Samples were collected and analyzed using UV to determine the concentration of Drug 1 in solution.
Control 4 consisted of crystalline Drug 1 administered into PBS containing 5/2 (wt/wt) Cremophor RH40/Capmul MCM, and a sufficient amount of Drug 1 was added so that the concentration would have been 50 μg/mL, if all of the drug had dissolved.

[2] = In vitro dissolution test of Drug 2 compositions in PBS pH 6.5, room temperature, 0.45 μm syringe filter, UV; 50 μg/mL if all drug dissolved
Experimental: Example 3 consisted of Adsorbate 2 administered into solution with a lipophilic microphase-forming material. At time 0, a 6.656 mg sample of Adsorbate 2 was added to 40 mL of phosphate buffered saline (PBS) at pH 6.5 and 290 mOsm/kg, containing 1 mg/mL of PEG 6000 distearate (the concentration of drug would have been 50 μg/mL, if all of the drug had dissolved). The test solution was stirred at room temperature in a syringe equipped with a Gelman Acrodisc 13 CR 0.45 μm PTFE filter, as described for Example 1. Samples were collected and analyzed using UV to determine the concentration of Drug 2 in solution.
Control 5 consisted of Adsorbate 2 administered into PBS without the lipophilic microphase-forming material, and a sufficient amount of sample was added so that the concentration of drug would have been 50 μg/mL, if all of the drug had dissolved.
Control 6 consisted of crystalline Drug 2 administered into PBS containing PEG 6000 Distearate, and a sufficient amount of Drug 2 was added so that the concentration would have been 50 μg/mL, if all of the drug had dissolved.
Control 7 consisted of crystalline Drug 2 administered into PBS without the lipophilic microphase-forming material, and a sufficient amount of sample was added so that the concentration of drug would have been 50 μg/mL, if all of the drug had dissolved.

[3] = In vitro dissolution test of Drug 3 compositions (Example 4 in MOPS buffer pH 7.4, controls given as PBS), room temperature, 0.45 μm syringe filter, UV; 50 μg/mL if all drug dissolved
Experimental: Example 4 consisted of Adsorbate 3 administered into solution with a lipophilic microphase-forming material. At time 0, an 8.02 mg sample of Adsorbate 3 was added to 40 ml of 50 mM 3-(4-morpholino propane sulfonic acid) sodium salt (MOPS) buffer at pH 7.4, containing 5 mg/mL of Tween 80 (available from ICI Americas Inc); the concentration of drug would have been 50 μg/mL, if all of the drug had dissolved. The test solution was stirred at room temperature in a syringe equipped with a Gelman Acrodisc 13 CR 0.45 μm PTFE filter, as described for Example 1. Samples were collected and analyzed using UV to determine the concentration of Drug 3 in solution.
Control 8 consisted of Adsorbate 3 administered into PBS without the lipophilic microphase-forming material, and a sufficient amount of sample was added so that the concentration of drug would have been 50 μg/mL, if all of the drug had dissolved.
Control 9 consisted of crystalline Drug 3 administered into PBS containing Tween 80, and a sufficient amount of Drug 3 was added so that the concentration would have been 50 μg/mL, if all of the drug had dissolved.
Control 10 consisted of crystalline Drug 3 administered into PBS without the lipophilic microphase-forming material, and a sufficient amount of sample was added so that the concentration of drug would have been 50 μg/mL, if all of the drug had dissolved.

AUC90 ([1]; Drug 1, area under the aqueous concentration versus time curve after 90 minutes): <45 µg·min/mL
AUC ([1]; Drug 1, time 0 min): 0 µg·min/mL
AUC ([1]; Drug 1, time 1 min): <1 µg·min/mL
AUC ([1]; Drug 1, time 3 min): <2 µg·min/mL
AUC ([1]; Drug 1, time 5 min): <3 µg·min/mL
AUC ([1]; Drug 1, time 10 min): <5 µg·min/mL
AUC ([1]; Drug 1, time 15 min): <8 µg·min/mL
AUC ([1]; Drug 1, time 20 min): <10 µg·min/mL
AUC ([1]; Drug 1, time 30 min): <15 µg·min/mL
AUC ([1]; Drug 1, time 45 min): <23 µg·min/mL
AUC ([1]; Drug 1, time 60 min): <30 µg·min/mL
AUC ([1]; Drug 1, time 90 min): <45 µg·min/mL
AUC ([1]; Drug 1, time 120 min): <60 µg·min/mL
AUC ([1]; Drug 1, time 1200 min): <600 µg·min/mL
MDC90 ([1]; maximum concentration of Drug 1 in solution during the first 90 minutes): <0.5 µg/mL
Drug 1 Concentration ([1]; time 0 min): <0.5 µg/mL
Drug 1 Concentration ([1]; time 1 min): <0.5 µg/mL
Drug 1 Concentration ([1]; time 3 min): <0.5 µg/mL
Drug 1 Concentration ([1]; time 5 min): <0.5 µg/mL
Drug 1 Concentration ([1]; time 10 min): <0.5 µg/mL
Drug 1 Concentration ([1]; time 15 min): <0.5 µg/mL
Drug 1 Concentration ([1]; time 20 min): <0.5 µg/mL
Drug 1 Concentration ([1]; time 30 min): <0.5 µg/mL
Drug 1 Concentration ([1]; time 45 min): <0.5 µg/mL
Drug 1 Concentration ([1]; time 60 min): <0.5 µg/mL
Drug 1 Concentration ([1]; time 90 min): <0.5 µg/mL
Drug 1 Concentration ([1]; time 120 min): <0.5 µg/mL
Drug 1 Concentration ([1]; time 1200 min): <0.5 µg/mL
Structure (SMILES): CCOC(=O)N1c2ccc(C(F)(F)F)cc2[C@@H](N(Cc2cc(C(F)(F)F)cc(C(F)(F)F)c2)C(=O)OC)C[C@H]1CC [Control 3, [2R,4S] 4-[(3,5-bis-trifluoromethyl-benzyl)-methoxycarbonyl-amino]-2-ethyl-6-trifluoromethyl-3,4-dihydro-2H-quinoline-1-carboxylic acid ethyl ester]

AUC90 ([2]; Drug 2, area under the aqueous concentration versus time curve after 90 minutes): <45 µg·min/mL
AUC ([2]; Drug 2, time 0 min): 0 µg·min/mL
AUC ([2]; Drug 2, time 1 min): <1 µg·min/mL
AUC ([2]; Drug 2, time 2 min): <1 µg·min/mL
AUC ([2]; Drug 2, time 3 min): <2 µg·min/mL
AUC ([2]; Drug 2, time 5 min): <3 µg·min/mL
AUC ([2]; Drug 2, time 10 min): <5 µg·min/mL
AUC ([2]; Drug 2, time 15 min): <8 µg·min/mL
AUC ([2]; Drug 2, time 20 min): <10 µg·min/mL
AUC ([2]; Drug 2, time 30 min): <15 µg·min/mL
AUC ([2]; Drug 2, time 45 min): <23 µg·min/mL
AUC ([2]; Drug 2, time 64 min): <32 µg·min/mL
AUC ([2]; Drug 2, time 90 min): <45 µg·min/mL
AUC ([2]; Drug 2, time 160 min): <80 µg·min/mL
AUC ([2]; Drug 2, time 1200 min): <600 µg·min/mL
MDC90 ([2]; maximum concentration of Drug 2 in solution during the first 90 minutes): <0.5 µg/mL
Drug 2 Concentration ([2]; time 0 min): <0.5 µg/mL
Drug 2 Concentration ([2]; time 1 min): <0.5 µg/mL
Drug 2 Concentration ([2]; time 2 min): <0.5 µg/mL
Drug 2 Concentration ([2]; time 3 min): <0.5 µg/mL
Drug 2 Concentration ([2]; time 5 min): <0.5 µg/mL
Drug 2 Concentration ([2]; time 10 min): <0.5 µg/mL
Drug 2 Concentration ([2]; time 15 min): <0.5 µg/mL
Drug 2 Concentration ([2]; time 20 min): <0.5 µg/mL
Drug 2 Concentration ([2]; time 30 min): <0.5 µg/mL
Drug 2 Concentration ([2]; time 45 min): <0.5 µg/mL
Drug 2 Concentration ([2]; time 64 min): <0.5 µg/mL
Drug 2 Concentration ([2]; time 90 min): <0.5 µg/mL
Drug 2 Concentration ([2]; time 160 min): <0.5 µg/mL
Drug 2 Concentration ([2]; time 1200 min): <0.5 µg/mL
Structure (SMILES): CC[C@@H]1C[C@H](N(Cc2cc(C(F)(F)F)cc(C(F)(F)F)c2)C(=O)OC)c2cc(C(F)(F)F)ccc2N1C(=O)OC(C)C [Control 7, [2R,4S] 4-[(3,5-bis-trifluoromethyl-benzyl)-methoxycarbonyl-amino]-2-ethyl-6-trifluoromethyl-3,4-dihydro-2H-quinoline-1-carboxylic acid isopropyl ester]

AUC90 ([3]; Drug 3, area under the aqueous concentration versus time curve after 90 minutes): <90 µg·min/mL
AUC ([3]; Drug 3, time 0 min): <1 µg·min/mL
AUC ([3]; Drug 3, time 5 min): <5 µg·min/mL
AUC ([3]; Drug 3, time 10 min): <10 µg·min/mL
AUC ([3]; Drug 3, time 20 min): <20 µg·min/mL
AUC ([3]; Drug 3, time 40 min): <40 µg·min/mL
AUC ([3]; Drug 3, time 90 min): <90 µg·min/mL
AUC ([3]; Drug 3, time 1260 min): <1260 µg·min/mL
MDC90 ([3]; maximum concentration of Drug 3 in solution during the first 90 minutes): <1 µg/mL
Drug 3 Concentration ([3]; time 0 min): <1 µg/mL
Drug 3 Concentration ([3]; time 5 min): <1 µg/mL
Drug 3 Concentration ([3]; time 10 min): <1 µg/mL
Drug 3 Concentration ([3]; time 20 min): <1 µg/mL
Drug 3 Concentration ([3]; time 40 min): <1 µg/mL
Drug 3 Concentration ([3]; time 90 min): <1 µg/mL
Drug 3 Concentration ([3]; time 1260 min): <1 µg/mL
Structure (SMILES): O=C1Cc2cc(CCN3CCN(c4nsc5ccccc45)CC3)c(Cl)cc2N1 [Control 10]
